Where two headings read alike, the source gives them in different places. Bridge positions count the residues as written; N and C are the ends. Square brackets hold non-standard residues; d marks the D form. Peptide text beside a SMILES is read from it. Pro(4R-NH2) = N[C@H]1CN[C@H](C(=O)O)C1; Gly(N-2-aminoethyl) = NCCNCC(=O)O; Hyp = O=C(O)[C@@H]1C[C@@H](O)CN1; Cha = N[C@@H](CC1CCCCC1)C(=O)O; Gly(N(CH2)3NH2) = NCCCNCC(=O)O; Pen = CC(C)(S)[C@H](N)C(=O)O; dDab = NCC[C@@H](N)C(=O)O; Dab = NCC[C@H](N)C(=O)O
Legend:
[1] = tested on: Escherichia coli ATCC 25922; conditions: ATCC 25922
Procedure, shortened: (§1)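 Broth microdilution; cation-adjusted MHII; inoculum ~5×10^5 CFU/mL from 0.5 McFarland saline suspension; peptide two-fold serial dilutions; polysorbate 80 0.002% final; peptide stock 1 mg/mL in water.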

[2] = tested on: Escherichia coli MCR-1 Af 45
Procedure, shortened: as §1

[3] = tested on: Klebsiella pneumoniae SSI3010; conditions: SSI3010
Procedure, shortened: as §1

[4] = tested on: human red blood cells (hRBC); assay: Hemolysis of human red blood cells; assay type: cell-based; conditions: red cells of human, 1 h
Procedure, shortened: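 PBS-washed human red blood cells (20% v/v) were incubated with peptide at 200 μg/mL for 1 h at 37 °C with shaking. Supernatant OD was read at 540 nm after 8-fold dilution. Hemolysis is expressed as percent of the water control.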

[5] = Mueller-Hinton broth II, 18-20 hours at 35° C.

SMILES | Escherichia coli ATCC 25922 MIC [1] [µg/mL] | Escherichia coli MCR-1 Af 45 MIC ([2]; MCR-1 Af 45) [µg/mL] | Klebsiella pneumoniae SSI3010 MIC [3] [µg/mL] | Hemolysis at 0.2 g/L [4] [%] | Escherichia coli MCR-1 Af 45 MIC [2, 5] [µg/mL]
CC[C@H](C)[C@H](NC(=O)[C@@H](NC(=O)[C@@H]1C[C@@H](N)CN1C(=O)[C@@H](NC(=O)[C@@H]1C[C@@H](N)CN1)C(C)C)[C@@H](C)CC)C(=O)N[C@@H](Cc1ccc(O)cc1)C(=O)N[C@@H]1C(=O)N[C@@H](CC(N)=O)C(=O)N[C@@H](CCCNC(=N)N)C(=O)N[C@@H](CCN)C(=O)N[C@@H]([C@@H](C)O)C(=O)N[C@H](CCN)C(=O)N[C@@H](CCCCN)C(=O)N[C@H](C(=O)N[C@@H](CCN)C(=O)N[C@@H](CCCNC(=N)N)C(=O)N[C@@H](CC2CCCCC2)C(=O)O)CSSC1(C)C [Example 20, Pro((4R)NH2)-Val-Pro((4R)NH2)-Ile-Ile-Tyr-Pen-Asn-Arg-Dab-Thr-^DDab-Lys-Cys-Dab-Arg-Cha] (H-[Pro(4R-NH2)]V[Pro(4R-NH2)]IIY[Pen]NR[Dab]T[dDab]KC[Dab]R[Cha]-OH; disulfide 7-14) | ≤0.03125 | ≤0.03125 | 0.125 | 1 | –
CC[C@H](C)[C@H](NC(=O)[C@@H](NC(=O)[C@@H]1CCCN1C(=O)[C@@H](NC(=O)[C@@H]1CCCN1C(=O)[C@@H](C)NC(=O)[C@@H](N)CCCCN)C(C)C)[C@@H](C)CC)C(=O)N[C@@H](Cc1ccc(O)cc1)C(=O)N[C@@H]1C(=O)N[C@@H](CC(N)=O)C(=O)N[C@@H](CCCNC(=N)N)C(=O)N[C@@H](CCN)C(=O)N[C@@H]([C@@H](C)O)C(=O)N[C@H](CCN)C(=O)N[C@@H](CCCCN)C(=O)N[C@H](C(=O)N[C@@H](CCN)C(=O)N[C@@H](CCCNC(=N)N)C(=O)N[C@@H](Cc2ccc(O)cc2)C(=O)O)CSSC1(C)C [Example 90, Lys-^DAla-Pro-Val-Pro-Ile-Ile-Tyr-Pen-Asn-Arg-Dab-Thr-^DDab-Lys-Cys-Dab-Arg-Tyr] (HELM PEPTIDE1{K.[dA].P.V.P.I.I.Y.[Pen].N.R.[Dab].T.[NCC[C@@H](N[*:1])C(=O)[*:2]].K.C.[Dab].R.Y}$PEPTIDE1,PEPTIDE1,9:R3-16:R3$$$V2.0) | 0.25 | 0.0625 | 0.125 | 0 | –
CC[C@H](C)[C@H](NC(=O)[C@@H]1C[C@@H](O)CN1C(=O)[C@@H](N)C(C)C)C(=O)N[C@H](C(=O)N[C@@H](Cc1ccc(O)cc1)C(=O)N[C@@H]1C(=O)N[C@@H](CC(N)=O)C(=O)N[C@@H](CCCNC(=N)N)C(=O)N[C@@H](CCN)C(=O)N[C@@H]([C@@H](C)O)C(=O)N[C@H](CCCNC(=N)N)C(=O)N[C@@H](CCCCN)C(=O)N[C@H](C(=O)N[C@@H](CCN)C(=O)N[C@@H](CCCNC(=N)N)C(=O)N[C@@H](Cc2ccc(O)cc2)C(=O)O)CSSC1(C)C)[C@@H](C)O [Example 152] (HELM PEPTIDE1{V.[Hyp].I.T.Y.[Pen].N.R.[Dab].T.[dR].K.C.[Dab].R.Y}$PEPTIDE1,PEPTIDE1,6:R3-13:R3$$$V2.0) | 0.25 | – | 0.25 | 0 | 0.25
CC[C@H](C)[C@H](NC(=O)[C@@H]1C[C@@H](O)CN1C(=O)[C@@H](N)C(C)C)C(=O)N[C@H](C(=O)N[C@@H](Cc1ccc(O)cc1)C(=O)N[C@@H]1C(=O)N[C@@H](CC(N)=O)C(=O)N[C@@H](CCCNC(=N)N)C(=O)N[C@@H](CCCNC(=N)N)C(=O)N[C@@H]([C@@H](C)O)C(=O)N[C@H](CCN)C(=O)N[C@@H](CCCCN)C(=O)N[C@H](C(=O)N[C@@H](CCN)C(=O)N[C@@H](CCCNC(=N)N)C(=O)N[C@@H](Cc2ccc(O)cc2)C(=O)O)CSSC1(C)C)[C@@H](C)O [Example 168] (HELM PEPTIDE1{V.[Hyp].I.T.Y.[Pen].N.R.R.T.[NCC[C@@H](N[*:1])C(=O)[*:2]].K.C.[Dab].R.Y}$PEPTIDE1,PEPTIDE1,6:R3-13:R3$$$V2.0) | 0.125 | – | 0.25 | 0 | 0.5
CC[C@H](C)[C@H](NC(=O)[C@@H]1C[C@@H](O)CN1C(=O)[C@@H](NC(=O)CN(CCN)C(=O)[C@@H](N)CCCCN)C(C)C)C(=O)N[C@H](C(=O)N[C@@H](Cc1ccc(O)cc1)C(=O)N[C@@H]1C(=O)N[C@@H](CC(N)=O)C(=O)N[C@@H](CCCNC(=N)N)C(=O)N[C@@H](CCN)C(=O)N[C@@H]([C@@H](C)O)C(=O)N[C@H](CCN)C(=O)N[C@@H](CCCCN)C(=O)N[C@H](C(=O)N[C@@H](CCN)C(=O)N[C@@H](CCCNC(=N)N)C(=O)N[C@@H](Cc2ccc(O)cc2)C(=O)O)CSSC1(C)C)[C@@H](C)O [Example 53, Lys-Ndab-Val-Hyp-Ile-Thr-Tyr-Pen-Asn-Arg-Dab-Thr-^DDab-Lys-Cys-Dab-Arg-Tyr] (HELM PEPTIDE1{K.[NCCN(CC(=O)[*:2])[*:1]].V.[Hyp].I.T.Y.[Pen].N.R.[Dab].T.[NCC[C@@H](N[*:1])C(=O)[*:2]].K.C.[Dab].R.Y}$PEPTIDE1,PEPTIDE1,8:R3-15:R3$$$V2.0) | 0.0625 | ≤0.03125 | 0.0625 | 0 | –
CC[C@H](C)[C@H](NC(=O)[C@@H]1C[C@@H](O)CN1C(=O)[C@@H](NC(=N)N)C(C)C)C(=O)N[C@H](C(=O)N[C@@H](Cc1ccc(O)cc1)C(=O)N[C@@H]1C(=O)N[C@@H](CCC(=O)O)C(=O)N[C@@H](CCCNC(=N)N)C(=O)N[C@@H](CCN)C(=O)N[C@@H]([C@@H](C)O)C(=O)N[C@H](CCN)C(=O)N[C@@H](CCCCN)C(=O)N[C@H](C(=O)N[C@@H](CCN)C(=O)N[C@@H](CCCNC(=N)N)C(=O)N[C@@H](Cc2ccc(O)cc2)C(=O)O)CSSC1(C)C)[C@@H](C)O [Example 193] (HELM PEPTIDE1{[CC(C)[C@H](NC(=N)N)C(=O)[*:2]].[Hyp].I.T.Y.[Pen].E.R.[Dab].T.[NCC[C@@H](N[*:1])C(=O)[*:2]].K.C.[Dab].R.Y}$PEPTIDE1,PEPTIDE1,6:R3-13:R3$$$V2.0) | 0.25 | – | 0.5 | 0 | 0.25

The next lines start with results.

Escherichia coli ATCC 25922 MIC [1] [µg/mL] | Escherichia coli MCR-1 Af 45 MIC ([2]; MCR-1 Af 45) [µg/mL] | Klebsiella pneumoniae SSI3010 MIC [3] [µg/mL] | SMILES | Hemolysis at 0.2 g/L [4] [%] | Escherichia coli MCR-1 Af 45 MIC [2, 5] [µg/mL]
0.0625 | ≤0.03125 | 0.0625 | CC[C@H](C)[C@H](NC(=O)[C@@H](NC(=O)[C@@H]1C[C@@H](N)CN1C(=O)[C@@H](NC(=O)[C@@H]1CCCN1)C(C)C)[C@@H](C)CC)C(=O)N[C@@H](Cc1ccc(O)cc1)C(=O)N[C@@H]1C(=O)N[C@@H](CC(N)=O)C(=O)N[C@@H](CCCNC(=N)N)C(=O)N[C@@H](CCN)C(=O)N[C@@H]([C@@H](C)O)C(=O)N[C@H](CCN)C(=O)N[C@@H](CCCCN)C(=O)N[C@H](C(=O)N[C@@H](CCN)C(=O)N[C@@H](CCCNC(=N)N)C(=O)N[C@@H](CC2CCCCC2)C(=O)O)CSSC1(C)C [Example 19, Pro-Val-Pro((4R)NH2)-Ile-Ile-Tyr-Pen-Asn-Arg-Dab-Thr-^DDab-Lys-Cys-Dab-Arg-Cha] (HELM PEPTIDE1{P.V.[N[C@@H]1C[C@@H](C(=O)[*:2])N([*:1])C1].I.I.Y.[Pen].N.R.[Dab].T.[NCC[C@@H](N[*:1])C(=O)[*:2]].K.C.[Dab].R.[Cha]}$PEPTIDE1,PEPTIDE1,7:R3-14:R3$$$V2.0) | 0 | –
0.25 | 0.125 | 0.25 | CC[C@H](C)[C@H](NC(=O)[C@@H]1C[C@@H](O)CN1C(=O)[C@@H](NC(=O)CN(CCN)C(=O)CNCCCN)C(C)C)C(=O)N[C@H](C(=O)N[C@@H](Cc1ccc(O)cc1)C(=O)N[C@@H]1C(=O)N[C@@H](CC(N)=O)C(=O)N[C@@H](CCCNC(=N)N)C(=O)N[C@@H](CCN)C(=O)N[C@@H]([C@@H](C)O)C(=O)N[C@H](CCN)C(=O)N[C@@H](CCCCN)C(=O)N[C@H](C(=O)N[C@@H](Cc2ccc(O)cc2)C(=O)N[C@@H](CCCNC(=N)N)C(=O)N[C@@H](Cc2ccc(O)cc2)C(=O)O)CSSC1(C)C)[C@@H](C)O [Example 60, Norn-Ndab-Val-Hyp-Ile-Thr-Tyr-Pen-Asn-Arg-Dab-Thr-^DDab-Lys-Cys-Tyr-Arg-Tyr] (H-[Gly(N(CH2)3NH2)][Gly(N-2-aminoethyl)]V[Hyp]ITY[Pen]NR[Dab]T[dDab]KCYRY-OH; disulfide 8-15; N-terminus assumed) | 0 | –
0.03125 | ≤0.03125 | 0.0625 | CC[C@H](C)[C@H](NC(=O)[C@@H](NC(=O)[C@@H]1CCCN1C(=O)[C@@H](NC(=O)[C@@H]1CCCN1C(=O)CN(CCCCN)C(=O)[C@@H](N)CCCCN)C(C)C)[C@@H](C)CC)C(=O)N[C@@H](Cc1ccc(O)cc1)C(=O)N[C@H]1CSSC[C@@H](C(=O)N[C@@H](CCN)C(=O)N[C@@H](CCCNC(=N)N)C(=O)N[C@@H](Cc2ccc(O)cc2)C(=O)O)NC(=O)[C@H](CCCCN)NC(=O)[C@@H](CCN)NC(=O)[C@H]([C@@H](C)O)NC(=O)[C@H](CCN)NC(=O)[C@H](CCCNC(=N)N)NC(=O)[C@H](CC(N)=O)NC1=O [Example 100] (HELM PEPTIDE1{K.[NCCCCN(CC(=O)[*:2])[*:1]].P.V.P.I.I.Y.C.N.R.[Dab].T.[NCC[C@@H](N[*:1])C(=O)[*:2]].K.C.[Dab].R.Y}$PEPTIDE1,PEPTIDE1,9:R3-16:R3$$$V2.0; N-terminus assumed) | 0 | –
